Results published in patent US20150202291A1, “COMBINATIONS OF CHECKPOINT INHIBITORS AND THERAPEUTICS TO TREAT CANCER” (COGNATE BIOSERVICES, INC., priority 2013, published 2015).

Assays:
[1] = system: GL261 murine glioma; test: Intracranial GL261 glioma model, flow cytometry of tumor and lymph node cell populations; type: in vivo, C57BL/6 mice; conditions: day 16 post-implant, 72 h after second treatment
Experimental: There may be limited endogenous immune response to tumor in C57BL/6 mice intracranially implanted with GL261 murine glioma (FIG. 1A). Mice were intracranially implanted with GL261 murine glioma and then administered PBS (1×) or lysate-pulsed DC vaccine subcutaneously on days 3 and 13 post-tumor implant. On day 16, 72 h after the second treatment, mice were euthanized and spleen, lymph, and brain hemispheres harvested for processing. […] To determine the overall physiologic effect of these cell populations, two groups of GL261 glioma-bearing mice (control and DC vaccine-treated) were maintained and monitored survival.
It was hypothesized that anti-tumor response promoted by the vaccination treatment is mitigated by PD-1/PD-L1 signaling in the tumor microenvironment. […] To evaluate this population, two additional therapies to control and DC-vaccine treatment were examined: anti-PD-1 mAb-treated and combination DC vaccine with anti-PD-1 mAb-treated groups. Spleen, lymph, and brain hemispheres harvested for processing on day 16 post-implant (72 h after second treatment). […] To evaluate therapeutic benefit, mice were implanted, treated, and monitored for survival.
The inhibitory myeloid population was depleted utilizing Ly6C depleting Ab or the clinically-relevant CSF1r inhibitory drug PLX3397. […]

[2] = system: GL261 murine glioma; test: Intracranial GL261 glioma model, survival; type: in vivo, C57BL/6 mice; conditions: well-established intracranial GL261 glioma
Experimental: The inhibitory myeloid population was depleted utilizing Ly6C depleting Ab or the clinically-relevant CSF1r inhibitory drug PLX3397. […] Spleen, lymph, and brain hemispheres harvested for processing on day 16 post-implant (72 h after second treatment).
Bone marrow-derived DC and vaccination. […] Briefly, bone marrow cells were cultured in a humidified atmosphere of 5% CO2 at 37° C. overnight in complete RPMI (Mediatech, Inc. Herndon, Va.) (supplemented with 10% FBS, 1% (v/v) penicillin and streptomycin). […]

[3] = system: advanced, treatment-refractory malignancies; conditions: cited from earlier work
[4] = system: diffuse large B-cell lymphoma (DLBCL); conditions: cited from earlier work

Compound: FC(F)(F)c1ccc(CNc2ccc(Cc3c[nH]c4ncc(Cl)cc34)cn2)cn1 [PLX3397]
- activated tumor-infiltrating lymphocytes (CD3+CD8+CD25+) [1]: significant tumor-infiltrating population
- inhibitory myeloid population (Ly6C+, PD-L1+) in tumor [1]: absence
- survival [2]: entirely recovered survival benefit

Compound: BMS-936558: fully human IgG4 monoclonal antibody targeting PD-1
- tumor regressions ([3]; advanced, treatment-refractory malignancies, biweekly administration): durable partial or complete regressions
- clinical activity ([3]; subjects with non-small cell lung cancer (NSCLC)): substantial clinical activity

Compound: CT-011: humanized IgG1 monoclonal antibody against PD-1
- activity of natural killer cells ([4]; phase II trial finding): augments the activity of natural killer cells
- subjects progression-free at the end of the follow-up period ([4]; phase II, DLBCL after autologous stem cell transplantation, control group 47%): 70%
- subjects alive ([4]; phase II, DLBCL after autologous stem cell transplantation, control group 62%): 82%
